Experimental findings from BindingDB's records for patent US10766884 (Pfizer Inc., 2020) are described below.

This experiment deals with Cyclin-dependent kinase 6/G1/S-specific cyclin-D3 (Homo sapiens, UniProt Q00534). Description: Biological Assay. How it is done: CDK6/Cyclin D3: The purpose of the CDK6/Cyclin D3 assay is to evaluate the inhibition (% inhibition, Kiapp and Ki values) in the presence of small molecule inhibitors by using a fluorescence based microfluidic mobility shift assay. […] The mobility shift assay electrophoretically separates the fluorescently labeled peptides (substrate and phosphorylated product) following the kinase reaction. Both substrate and product are measured and the ratio of these values is used to generate % conversion of substrate to product by the LabChip EZ Reader.
Chain of Cyclin-dependent kinase 6/G1/S-specific cyclin-D3 (Q00534 whole entry): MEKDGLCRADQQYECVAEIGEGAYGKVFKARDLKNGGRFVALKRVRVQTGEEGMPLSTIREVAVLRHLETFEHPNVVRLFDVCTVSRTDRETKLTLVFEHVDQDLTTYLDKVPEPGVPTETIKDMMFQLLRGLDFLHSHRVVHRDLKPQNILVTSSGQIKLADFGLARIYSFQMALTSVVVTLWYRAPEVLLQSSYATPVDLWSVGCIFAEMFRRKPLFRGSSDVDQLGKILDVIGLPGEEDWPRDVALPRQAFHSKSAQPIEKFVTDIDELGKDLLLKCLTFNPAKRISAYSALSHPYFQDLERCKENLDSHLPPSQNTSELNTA
Chain of Cyclin-dependent kinase 6/G1/S-specific cyclin-D3 (P30281 whole entry, further chain): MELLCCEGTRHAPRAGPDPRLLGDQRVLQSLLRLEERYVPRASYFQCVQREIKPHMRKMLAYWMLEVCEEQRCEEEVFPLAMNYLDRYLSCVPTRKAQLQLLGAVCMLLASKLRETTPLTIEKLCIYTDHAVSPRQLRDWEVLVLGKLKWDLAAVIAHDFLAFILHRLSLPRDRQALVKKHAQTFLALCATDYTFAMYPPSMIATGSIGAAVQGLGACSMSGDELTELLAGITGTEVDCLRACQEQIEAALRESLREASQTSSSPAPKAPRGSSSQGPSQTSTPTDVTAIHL

For `Cc1nc2c(F)cc(-c3cc(N[C@@H]4CCN(S(C)(=O)=O)C[C@H]4O)ncc3Cl)cc2n1C(C)C` [US10766884, Example E01], the affinity, expressed as Ki, was 1.4 nM.
